Values quoted from earlier work in patent publication US12351592B2 (UNIVERSIDAD SANTIAGO DE CALI, priority 2019, dated 2025).

SMILES: CN(C)C(=N)N=C(N)N [Metformin]
- distribution volume (Vd) (in vivo): 654±358 I
- access to erythrocytes (slow access): 5 % of the blood dose
